Data published in ChEMBL document CHEMBL5715954, “Silencing c-Myc translation as a therapeutic strategy through targeting PI3Kδ and CK1ε in hematological malignancies” (Blood, 2017).

Assays:
Set-up in all cases: scale not given: the % may be the effect or the level left
[1] = molecular target: T1, Serine/threonine-protein kinase LATS2 (Homo sapiens) (UniProt Q9NRM7); assay: Inhibition of human LATS2 assessed as enzyme activity at 1 uM using KKRNRRLSVA as substrate preincubated for 20 mins followed by [gamma-33P]-ATP addition and measured after 120 mins by radiometric Hot-SpotSM Kinase assay relative to control
T1 sequence (whole entry): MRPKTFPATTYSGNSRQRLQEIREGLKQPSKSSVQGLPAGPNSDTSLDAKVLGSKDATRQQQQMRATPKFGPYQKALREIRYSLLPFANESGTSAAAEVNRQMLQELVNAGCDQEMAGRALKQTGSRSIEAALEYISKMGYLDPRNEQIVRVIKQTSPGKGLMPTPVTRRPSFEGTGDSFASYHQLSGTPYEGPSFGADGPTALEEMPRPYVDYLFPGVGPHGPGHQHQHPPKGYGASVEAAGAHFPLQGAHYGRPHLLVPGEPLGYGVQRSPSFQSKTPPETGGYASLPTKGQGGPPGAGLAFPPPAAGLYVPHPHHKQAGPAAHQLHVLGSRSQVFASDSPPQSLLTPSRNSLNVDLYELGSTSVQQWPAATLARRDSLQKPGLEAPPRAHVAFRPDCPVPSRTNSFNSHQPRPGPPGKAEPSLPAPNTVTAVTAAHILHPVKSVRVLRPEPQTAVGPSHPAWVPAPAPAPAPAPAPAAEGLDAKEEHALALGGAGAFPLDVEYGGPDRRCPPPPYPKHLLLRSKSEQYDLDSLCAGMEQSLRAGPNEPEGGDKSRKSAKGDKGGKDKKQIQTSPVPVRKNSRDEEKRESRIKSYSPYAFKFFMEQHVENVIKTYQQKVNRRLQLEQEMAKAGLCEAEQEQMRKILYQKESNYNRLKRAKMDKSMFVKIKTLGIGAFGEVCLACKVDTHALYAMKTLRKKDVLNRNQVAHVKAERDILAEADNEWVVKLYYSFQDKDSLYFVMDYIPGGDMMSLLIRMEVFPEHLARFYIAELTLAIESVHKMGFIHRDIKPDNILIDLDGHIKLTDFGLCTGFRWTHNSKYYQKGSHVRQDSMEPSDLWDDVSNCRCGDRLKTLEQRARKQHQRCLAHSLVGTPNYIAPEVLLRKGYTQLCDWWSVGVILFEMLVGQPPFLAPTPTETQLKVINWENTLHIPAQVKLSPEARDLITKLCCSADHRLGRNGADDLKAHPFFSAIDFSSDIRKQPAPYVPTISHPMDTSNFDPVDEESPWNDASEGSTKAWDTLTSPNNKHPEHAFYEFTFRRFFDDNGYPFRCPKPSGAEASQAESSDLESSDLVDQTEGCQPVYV

[2] = molecular target: Insulin-like growth factor 1 receptor (Homo sapiens) (UniProt P08069); assay: Inhibition of human IGF1R assessed as enzyme activity at 1 uM using KKKSPGEYVNIEFG as substrate preincubated for 20 mins followed by [gamma-33P]-ATP addition and measured after 120 mins by radiometric Hot-SpotSM Kinase assay relative to control
[3] = molecular target: Serine/threonine-protein kinase 32B (Homo sapiens) (UniProt Q9NY57); assay: Inhibition of human STK32B assessed as enzyme activity at 1 uM using myelin basic protein as substrate preincubated for 20 mins followed by [gamma-33P]-ATP addition and measured after 120 mins by radiometric Hot-SpotSM Kinase assay relative to control
[4] = molecular target: Tyrosine-protein kinase Fgr (Homo sapiens) (UniProt P09769); assay: Inhibition of human FGR assessed as enzyme activity at 1 uM using poly[Glu:Tyr] (4:1) as substrate preincubated for 20 mins followed by [gamma-33P]-ATP addition and measured after 120 mins by radiometric Hot-SpotSM Kinase assay relative to control
[5] = molecular target: Casein kinase I isoform gamma-3 (Homo sapiens) (UniProt Q9Y6M4); assay: Inhibition of human CK1g3 assessed as enzyme activity at 1 uM using KRRRAL[pS]VASLPGL as substrate preincubated for 20 mins followed by [gamma-33P]-ATP addition and measured after 120 mins by radiometric Hot-SpotSM Kinase assay relative to control
[6] = molecular target: Serine/threonine-protein kinase SBK1 (Homo sapiens) (UniProt Q52WX2); assay: Inhibition of human SBK1 assessed as enzyme activity at 1 uM using LCGRTGRRNSI as substrate preincubated for 20 mins followed by [gamma-33P]-ATP addition and measured after 120 mins by radiometric Hot-SpotSM Kinase assay relative to control
[7] = molecular target: Protein kinase C beta type (Homo sapiens) (UniProt P05771); assay: Inhibition of human PKCb1 assessed as enzyme activity at 1 uM using ERMRPRKRQGSVRRRV as substrate preincubated for 20 mins followed by [gamma-33P]-ATP addition and measured after 120 mins by radiometric Hot-SpotSM Kinase assay relative to control
[8] = molecular target: Focal adhesion kinase 1 (Homo sapiens) (UniProt Q05397); assay: Inhibition of human FAK assessed as enzyme activity at 1 uM using poly[Glu:Tyr] (4:1) as substrate preincubated for 20 mins followed by [gamma-33P]-ATP addition and measured after 120 mins by radiometric Hot-SpotSM Kinase assay relative to control
Chain of Focal adhesion kinase 1 (Homo sapiens) (Q05397 2-1052 limits assumed): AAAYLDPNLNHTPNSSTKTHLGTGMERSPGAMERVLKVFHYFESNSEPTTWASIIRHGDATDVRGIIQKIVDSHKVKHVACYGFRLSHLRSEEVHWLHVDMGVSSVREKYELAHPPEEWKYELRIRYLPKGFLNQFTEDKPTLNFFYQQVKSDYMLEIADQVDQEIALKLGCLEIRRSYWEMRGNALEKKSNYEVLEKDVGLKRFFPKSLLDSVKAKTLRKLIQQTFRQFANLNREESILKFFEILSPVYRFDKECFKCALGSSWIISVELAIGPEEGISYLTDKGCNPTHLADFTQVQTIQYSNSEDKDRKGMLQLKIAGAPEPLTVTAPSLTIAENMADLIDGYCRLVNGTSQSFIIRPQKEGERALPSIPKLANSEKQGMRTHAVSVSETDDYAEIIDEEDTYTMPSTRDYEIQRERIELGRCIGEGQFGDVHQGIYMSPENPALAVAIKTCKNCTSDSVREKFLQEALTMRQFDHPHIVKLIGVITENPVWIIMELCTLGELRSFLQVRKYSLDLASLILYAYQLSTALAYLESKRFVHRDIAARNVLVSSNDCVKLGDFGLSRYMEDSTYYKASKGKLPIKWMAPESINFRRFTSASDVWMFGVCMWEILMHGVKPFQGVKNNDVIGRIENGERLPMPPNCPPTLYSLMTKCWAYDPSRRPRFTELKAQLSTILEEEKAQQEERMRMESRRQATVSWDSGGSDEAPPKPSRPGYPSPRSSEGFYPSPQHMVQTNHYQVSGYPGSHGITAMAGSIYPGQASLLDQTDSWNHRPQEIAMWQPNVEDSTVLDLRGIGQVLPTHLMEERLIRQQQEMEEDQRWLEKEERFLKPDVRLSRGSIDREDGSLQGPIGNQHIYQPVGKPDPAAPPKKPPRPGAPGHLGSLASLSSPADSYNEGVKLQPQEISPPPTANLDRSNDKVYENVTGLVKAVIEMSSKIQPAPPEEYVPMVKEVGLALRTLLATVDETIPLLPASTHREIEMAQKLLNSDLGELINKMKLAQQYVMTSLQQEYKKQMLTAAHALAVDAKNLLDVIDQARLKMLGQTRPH

Chain of Casein kinase I isoform gamma-3 (Homo sapiens) (Q9Y6M4 whole entry, looked up, canonical isoform): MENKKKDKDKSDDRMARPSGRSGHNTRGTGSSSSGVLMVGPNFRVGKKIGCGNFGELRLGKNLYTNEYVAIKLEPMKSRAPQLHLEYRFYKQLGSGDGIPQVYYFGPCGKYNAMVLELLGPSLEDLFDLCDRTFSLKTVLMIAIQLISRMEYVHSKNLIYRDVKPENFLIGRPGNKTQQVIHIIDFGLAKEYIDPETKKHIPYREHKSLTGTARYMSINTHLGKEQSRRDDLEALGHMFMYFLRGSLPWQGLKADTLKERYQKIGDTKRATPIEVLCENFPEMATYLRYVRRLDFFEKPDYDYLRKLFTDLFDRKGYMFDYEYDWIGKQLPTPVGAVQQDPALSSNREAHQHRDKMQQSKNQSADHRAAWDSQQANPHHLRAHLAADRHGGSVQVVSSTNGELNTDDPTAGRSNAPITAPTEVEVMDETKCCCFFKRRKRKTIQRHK
Chain of Insulin-like growth factor 1 receptor (Homo sapiens) (P08069 31-736 limits assumed): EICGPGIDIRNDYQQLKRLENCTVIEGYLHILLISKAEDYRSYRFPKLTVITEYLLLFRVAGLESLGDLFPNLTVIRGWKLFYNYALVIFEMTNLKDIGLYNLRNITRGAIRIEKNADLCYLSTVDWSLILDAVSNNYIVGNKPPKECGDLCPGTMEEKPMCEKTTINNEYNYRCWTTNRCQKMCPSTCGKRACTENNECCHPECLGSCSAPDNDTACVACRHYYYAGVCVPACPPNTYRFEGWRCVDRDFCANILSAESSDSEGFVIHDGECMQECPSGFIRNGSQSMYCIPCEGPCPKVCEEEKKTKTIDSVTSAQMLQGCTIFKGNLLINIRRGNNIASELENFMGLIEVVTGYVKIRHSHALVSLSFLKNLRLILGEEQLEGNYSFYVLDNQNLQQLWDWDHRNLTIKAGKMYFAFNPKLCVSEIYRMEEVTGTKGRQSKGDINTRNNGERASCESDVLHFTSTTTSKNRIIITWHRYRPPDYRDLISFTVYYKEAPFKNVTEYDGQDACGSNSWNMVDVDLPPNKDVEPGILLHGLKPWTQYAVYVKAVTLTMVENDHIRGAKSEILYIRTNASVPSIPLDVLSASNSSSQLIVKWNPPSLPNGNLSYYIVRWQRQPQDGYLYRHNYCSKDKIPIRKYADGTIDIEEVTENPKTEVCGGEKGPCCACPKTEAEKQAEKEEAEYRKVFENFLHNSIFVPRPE
Chain of Insulin-like growth factor 1 receptor (Homo sapiens) (P08069 741-1367 limits assumed): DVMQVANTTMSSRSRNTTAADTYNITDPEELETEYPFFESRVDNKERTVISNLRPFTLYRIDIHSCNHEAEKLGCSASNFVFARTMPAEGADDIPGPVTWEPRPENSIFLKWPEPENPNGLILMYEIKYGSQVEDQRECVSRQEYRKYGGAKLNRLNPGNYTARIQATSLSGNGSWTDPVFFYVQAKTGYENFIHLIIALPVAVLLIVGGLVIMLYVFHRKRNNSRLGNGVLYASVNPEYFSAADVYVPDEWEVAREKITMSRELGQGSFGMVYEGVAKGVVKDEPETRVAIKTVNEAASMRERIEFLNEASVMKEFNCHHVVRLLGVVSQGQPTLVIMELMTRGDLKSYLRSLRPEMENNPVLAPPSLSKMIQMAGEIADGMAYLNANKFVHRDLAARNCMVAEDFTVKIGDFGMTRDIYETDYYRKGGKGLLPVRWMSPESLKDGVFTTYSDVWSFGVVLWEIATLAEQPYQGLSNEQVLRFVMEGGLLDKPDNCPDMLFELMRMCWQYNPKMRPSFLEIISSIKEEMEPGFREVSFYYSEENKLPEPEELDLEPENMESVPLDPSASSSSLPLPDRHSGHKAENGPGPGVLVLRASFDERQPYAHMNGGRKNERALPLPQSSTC
Chain of Serine/threonine-protein kinase SBK1 (Homo sapiens) (Q52WX2 whole entry): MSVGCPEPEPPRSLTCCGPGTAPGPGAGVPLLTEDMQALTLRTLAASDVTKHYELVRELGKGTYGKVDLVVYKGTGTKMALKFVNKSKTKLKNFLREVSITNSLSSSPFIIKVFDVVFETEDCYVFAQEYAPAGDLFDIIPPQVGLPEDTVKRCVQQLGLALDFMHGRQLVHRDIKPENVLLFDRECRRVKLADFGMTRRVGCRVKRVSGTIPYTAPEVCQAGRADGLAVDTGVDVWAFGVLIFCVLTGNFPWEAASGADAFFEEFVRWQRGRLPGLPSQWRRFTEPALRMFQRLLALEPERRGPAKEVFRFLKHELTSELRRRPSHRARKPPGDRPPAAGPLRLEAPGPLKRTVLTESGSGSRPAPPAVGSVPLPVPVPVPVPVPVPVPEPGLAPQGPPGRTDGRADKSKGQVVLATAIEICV
Chain of Serine/threonine-protein kinase 32B (Homo sapiens) (Q9NY57 whole entry): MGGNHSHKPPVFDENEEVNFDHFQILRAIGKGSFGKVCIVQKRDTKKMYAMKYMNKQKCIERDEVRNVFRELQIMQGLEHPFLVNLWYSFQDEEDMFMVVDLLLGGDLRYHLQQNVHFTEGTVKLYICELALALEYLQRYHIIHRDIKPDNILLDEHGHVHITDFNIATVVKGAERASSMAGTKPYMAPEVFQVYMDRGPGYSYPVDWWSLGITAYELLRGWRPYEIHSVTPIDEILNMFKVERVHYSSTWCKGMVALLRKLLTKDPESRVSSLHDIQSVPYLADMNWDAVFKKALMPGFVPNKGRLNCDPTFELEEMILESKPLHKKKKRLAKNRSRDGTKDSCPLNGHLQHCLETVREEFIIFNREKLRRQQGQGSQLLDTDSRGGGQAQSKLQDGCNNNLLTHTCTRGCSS
Chain of Protein kinase C beta type (Homo sapiens) (P05771 2-671 limits assumed): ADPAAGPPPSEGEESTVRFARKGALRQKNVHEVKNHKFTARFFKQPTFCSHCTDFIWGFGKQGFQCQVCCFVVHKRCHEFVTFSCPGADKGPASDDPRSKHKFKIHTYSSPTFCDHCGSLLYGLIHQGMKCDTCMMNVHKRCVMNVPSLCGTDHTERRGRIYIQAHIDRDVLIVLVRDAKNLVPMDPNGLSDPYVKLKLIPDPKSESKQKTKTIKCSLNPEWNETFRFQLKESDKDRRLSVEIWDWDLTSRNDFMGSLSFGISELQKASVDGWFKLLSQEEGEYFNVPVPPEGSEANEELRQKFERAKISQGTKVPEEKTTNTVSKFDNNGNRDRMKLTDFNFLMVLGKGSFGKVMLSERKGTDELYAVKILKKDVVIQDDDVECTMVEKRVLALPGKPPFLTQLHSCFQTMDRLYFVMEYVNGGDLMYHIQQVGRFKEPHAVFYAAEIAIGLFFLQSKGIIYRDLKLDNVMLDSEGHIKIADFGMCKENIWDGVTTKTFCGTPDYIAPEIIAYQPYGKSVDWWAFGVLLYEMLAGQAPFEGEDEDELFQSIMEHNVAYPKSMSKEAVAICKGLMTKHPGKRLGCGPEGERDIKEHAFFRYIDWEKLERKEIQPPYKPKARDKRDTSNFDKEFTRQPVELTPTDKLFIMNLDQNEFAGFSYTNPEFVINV
Chain of Tyrosine-protein kinase Fgr (Homo sapiens) (P09769 2-529 limits assumed): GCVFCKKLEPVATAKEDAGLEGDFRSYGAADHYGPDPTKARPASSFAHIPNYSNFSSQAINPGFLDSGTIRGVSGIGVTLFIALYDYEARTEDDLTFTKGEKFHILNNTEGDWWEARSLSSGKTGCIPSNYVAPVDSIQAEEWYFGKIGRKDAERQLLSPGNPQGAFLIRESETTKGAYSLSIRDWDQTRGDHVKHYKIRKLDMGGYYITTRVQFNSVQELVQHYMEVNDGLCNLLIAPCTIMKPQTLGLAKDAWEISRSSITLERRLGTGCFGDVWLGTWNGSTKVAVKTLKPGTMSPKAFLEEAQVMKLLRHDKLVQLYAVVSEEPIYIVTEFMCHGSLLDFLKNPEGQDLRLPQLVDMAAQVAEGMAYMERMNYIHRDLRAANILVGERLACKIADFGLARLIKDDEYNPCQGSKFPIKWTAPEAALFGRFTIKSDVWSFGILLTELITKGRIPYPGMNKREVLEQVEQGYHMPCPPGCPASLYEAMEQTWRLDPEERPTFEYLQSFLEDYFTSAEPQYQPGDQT

Molecule `C[C@H](Nc1ncnc2nc[nH]c12)c1cc2cccc(Cl)c2c(=O)n1-c1ccccc1` has an Activity [1] of 91.9%, an Activity [2] of 102% and an Activity [3] of 116%. For the same molecule, the Activity [4] was 103%, the Activity [5] was 92.9% and the Activity [6] was 99.5%. The Activity [7] was 99.4% and the Activity [8] was 98.4%.

`CC[C@H](Nc1ncnc2[nH]cnc12)c1nc2cccc(F)c2c(=O)n1-c1ccccc1` gave an Activity [1] of 91.5%, an Activity [2] of 91.5% and an Activity [3] of 120%. It also gave an Activity [4] of 98.8%, an Activity [5] of 93.1% and an Activity [6] of 101%. It also gave an Activity [7] of 98.7% and an Activity [8] of 103%.

`CC(C)Oc1ccc(-c2nn([C@@H](C)c3oc4ccc(F)cc4c(=O)c3-c3cccc(F)c3)c3ncnc(N)c23)cc1F` [UMBRALISIB] was tested, and the Activity [1] was 103%, the Activity [2] was 96.5% and the Activity [3] was 114%. The Activity [4] was 99.6%, the Activity [5] was 95.4% and the Activity [6] was 98.8%. It also gave an Activity [7] of 99% and an Activity [8] of 100%.
